The record followed here is patent publication US20050137239A1, “Thiazole derivatives” (priority 2003, published 2005).

SMILES strings stand for the structures.

For assay [1], the system named is cross-links representative of AGEs. Put plainly: AGE crosslink breaking, sandwich enzyme-linked immunoabsorbent assay. Conditions: pre-formed protein-sugar cross-links in multi-well plates; buffer control. As to the method:
This example describes the efficacy of a compound of the invention for breaking crosslinks associated with AGEs using a sandwich enzyme-linked immunoabsorbent assay.
A mixture of protein and sugar was incubated to form cross-links representative of AGEs and was placed in multi-well plates. The plates were then treated with either 2-amino-4,5-dimethylthiazole HCl or buffer. After treatment, the plates were rinsed to remove any free protein liberated by cross-link breakage. An antibody reactive to the protein was then added to the plates to provide quantitative levels of protein within the plate.

For the next assay, the target named is T1, glucose oxidase (Aspergillus niger, UniProt P13006).
T1 construct: purchased
T1 sequence (P13006 17-605, species assumed): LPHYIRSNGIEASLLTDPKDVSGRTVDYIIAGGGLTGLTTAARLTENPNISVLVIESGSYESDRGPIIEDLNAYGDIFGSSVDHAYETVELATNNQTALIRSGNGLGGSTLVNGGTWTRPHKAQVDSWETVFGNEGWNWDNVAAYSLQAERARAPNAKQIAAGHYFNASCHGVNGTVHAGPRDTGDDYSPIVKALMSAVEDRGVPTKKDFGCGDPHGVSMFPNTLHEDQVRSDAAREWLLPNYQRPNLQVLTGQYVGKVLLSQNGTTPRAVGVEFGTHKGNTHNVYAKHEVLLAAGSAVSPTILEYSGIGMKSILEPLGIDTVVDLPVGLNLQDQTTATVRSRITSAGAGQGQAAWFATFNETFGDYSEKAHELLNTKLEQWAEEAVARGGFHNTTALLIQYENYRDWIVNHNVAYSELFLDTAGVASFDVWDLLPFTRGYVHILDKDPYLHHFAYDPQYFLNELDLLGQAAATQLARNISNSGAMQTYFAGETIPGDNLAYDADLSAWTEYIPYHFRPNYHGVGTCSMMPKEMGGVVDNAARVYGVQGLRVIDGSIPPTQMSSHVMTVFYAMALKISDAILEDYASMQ
Put plainly: glucose oxidase inhibition, commercially available glucose oxidase kit. It counts as biochemical. An excerpt:
This example describes the effectiveness of a compound of the invention for inhibiting the enzyme glucose oxidase.
To test the efficacy of 2-amino-4,5-dimethylthiazole HCl for the inhibition of glucose oxidase, a commercially available glucose oxidase kit was used.

The test system of a further assay is AGE formation. Description: AGE formation inhibition: protein and sugar incubated at 37° C., gel formation. Particulars: control tube forms a gel. As to the method:
This example describes the efficacy of a compound of the invention for inhibiting AGE formation.
A control tube, containing protein and sugar, forms a gel with little or no remaining liquid when incubated at 37° C. Such a gel is indicative of extensive crosslinking associated with glycation.

For the molecule `Cc1nc(N)sc1C.Cl` [2-amino-4,5-dimethylthiazole HCl, 2-amino-4,5-dimethylthiazole hydrochloride], the “antibody bound in the plate as compared to the control plate” value in assay [1] is “less antibody bound”. Also, at glucose oxidase, the “reduction of production of H2O2 as compared to a control sample” value was “greater than 60%”. The “state of protein and sugar mixture (gel indicates crosslinking associated with glycation)” value in the assay with AGE formation is reported as “remained liquid”.
